# Measured values taken from patent US20040116352A1, “Active substance combination containing a compound with an opioid effect and at least one further compound of formula 1” (priority 2000, published 2004).
# Test system: rats
# Test: Tail-flick (focal-ray) test on rats
# Format: in vivo, rat
# Conditions: female Sprague Dawley rats, intravenous, 1.46 mg/kg morphine only, measured 10, 20, 40 and 60 min after application, FIGS. 1 and 2
# From the text: The analgesic effect of the inventive active substance combinations and the comparative solutions was investigated in the focal-ray (tail-flick) test on rats according to D'Amour and Smith, J. Pharm. Exp. Ther. Vol. 72, pages 74-79, 1941. For this, female Sprague Dawley rats (Janvier, France) weighing between 120 and 150 g were used.
# The rats were each placed in a test cage and the base of the tail exposed to the focused radiant heat from an electric lamp (tail-flick type 50/08/1.bc, Labtec, Dr. Hess). The lamp intensity was set so that the time from when the lamp was switched on until the tail was suddenly jerked away (pain latency) was 3 to 5 seconds in untreated rats. Before the application of the inventive active substance combinations and the comparative solutions, the rats were pre-tested twice within five minutes and the mean value of these measurements calculated as the pre-test mean value. The solutions of the inventive active substance combinations and the comparative solutions were then applied intravenously. The pain measurements were performed at 10, 20, 40 and 60 minutes respectively after the intravenous application. The analgesic effect was determined as an increase in the pain latency (% of the maximum possible antinociceptive effect) according to the following formula: […]
structure (smiles),measurement,value
"CN1CC[C@]23c4c5ccc(O)c4O[C@H]2[C@@H](O)C=C[C@H]3[C@H]1C5 [Comparative Example 1, morphine]","analgesic effect (increase in pain latency, % of the maximum possible antinociceptive effect)",good analgesic effect
